Results from US12075776B2, “Synthetic lures” (VICTORIA LINK LIMITED, priority 2016, dated 2024).

Columns and labels:
Format in all cases: in vivo
wild, free-ranging rats [1] = experiment: Field trials of single-compound synthetic lures in tracking tunnels (tracking rate); settings: for attractiveness relative to peanut butter standard and control (aggregated tracking rate): tracking rate aggregated for all seven concentrations 10,000 to 0.01 ppm in fractionated coconut oil, one night, FIG. 2
Experimental: Synthetic lures comprising a single compound mixed in a carrier medium (fractionated coconut oil) were presented to wild, free-ranging rats at 7 concentrations, decreasing in orders of magnitude from 10,000 ppm to 0.01 ppm. The compounds and concentrations used are set out in Table 2. Lures were presented in 1.7 mL Eppendorf microtubes secured to the inside wall of tracking tunnels using a cable tie. Inked cards were placed in each tunnel to quantify the visitation and identity of species visiting lures. Lures were randomly assigned along transects, with a minimum 25-m spacing between lures and with transects separated by 200 m. A control (fractionated coconut oil only) and standard (peanut butter) were assigned to each transect, with each transect comprising of lures presented at the same concentration. The order of transects was randomised for each trial. All lures were left in situ for one rain-free night. Lures were scored using the presence of rat tracks on inked cards to provide a proportion of inked cards receiving a visit for each lure, hereafter termed the “tracking rate”. Binomial tests were used to compare the tracking rate of each individual lure against peanut butter at the end of the trial period. Binomial tests were run in R (R Core Team 2013). Ten trials were undertaken at independent sites across the Wainuiomata and Orongorongo catchment region and within the Akatarawa and Pakuratahi Forest Parks, Wellington region (41° 15S, 175° 00E), New Zealand between 15 Jul. 2015 and 11 Nov. 2015.

wild, free-ranging rats [2] = experiment: Model selection / model averaging of blend-trial response variables (Visitation, Contact, Marking, Intensity); settings: response variable Intensity (footprint squares); Phase removed as random effect
wild, free-ranging rats [3] = experiment: as above; settings: for relative importance of variable (model averaging), Contact: response variable Contact (chew or bite marks); for relative importance of variable (model averaging), Marking: response variable Marking (urination and/or faecal marking); for relative importance of variable (model averaging), Visitation: response variable Visitation (tracking), presence/absence of compound in lure as predictor
Description: (§1) Trials were designed to compare the performance of each lure relative to the best performing lure after each successive trial phase. The elimination of poorer performing lures allowed for higher levels of internal replication and the inclusion of additional multi-component blend lures to Phase Two. Lures were scored using the presence/absence of rat tracks on inked tracking cards to provide a proportion of tracking cards receiving species-specific visitations and hereafter termed the ‘tracking rate’. The tracking rate was used to direct the elimination process. Lures that were statistically less attractive than the best performing lure after Phase One trials were eliminated from subsequent trials. Three behavioural response variables were scored that were designed to quantify the strength of the visit to the respective lure: (1) the presence of urination and/or faecal marking in or on the tracking tunnel and hereafter termed ‘Marking’; (2) the presence of chew or bite marks on the microtube and/or tracking tunnel and hereafter termed ‘Contact’ and; (3) the amount of footprints on each tracking card that received a visitation. This was measured using a 10 cm×47 cm Perspex sheet with a grid made up of 1 cm^2 squares. The number of squares with species-specific tracks was calculated to provide a score, hereafter termed ‘Intensity’. Intensity was designed to identify lures that generated intensive or multiple visits by an individual or that elicited visits from multiple individuals.
A multi-model information-theoretic approach was used at the end of Phase Two to identify the models of best fit for each of the four response variables (Tracking, Marking, Contact and Intensity) and to investigate possible synergistic effects between compounds used in multi-component blends. Data for each lure comprising one or any combination of A6, B6, C6, F7 and/or 17 were collated. Model averaging was used to identify each compounds relative importance to each response variable.
Binomial tests were used to compare the performance of each lure to the best performing lure at the end of each in-field trial phase and drive the process. Tracking, Marking and Contact models were run as generalised linear mixed-effects models (GLMM) with a binomial distribution and logit link and a linear mixed-effects model (LMM) for Intensity. The presence/absence of compounds in each lure were used as predictor variables.
A ‘Global’ model was firstly generated containing all fixed-effect parameters, with ‘Site’ and/or ‘Transect’ and/or ‘Trial Phase” included as random effects. This allowed for the examination of both spatial (Site and Transect) and temporal (Trial Phase) impacts on the data. ‘Transect’ nested within ‘Site’ and ‘Trial Phase’ provided an improved model fit compared to any other random effect model, therefore all models were run with the inclusion of ‘Transect’ nested within ‘Site’ and ‘Trial Phase” as random effects. Akaike's information criterion corrected for small sample size (AICc) was used to compare models. Corresponding Akaike differences (Δi), the number of parameters (K), Akaike weights (Wi) and log-likelihoods (LL) were also calculated. As the model set was not balanced i.e., there were not equal numbers of models for each variable a cut-off of 10AICC was used (Bolker et al. 2009) to create the model averaging candidate model-sets from the relative importance of variables were derived. Correlations between the response variables used in linear regression models were examined using Dice's similarity coefficient (QS) due to the binary nature of three of the four variables (Choi et al. 2010).
Statistical significance was assumed wherever P≤0.05. All statistical analysis was run in R (R Core Team 2016), with package Ime4 (Bates et al. 2015) used for mixed-effects models and MuMIn (Barton 2016) used for AICc scores, weights, deltas, log-likelihoods and model averaging (using the dredge function).

wild, free-ranging rats [4] = experiment: Blend trials (Phase One and Phase Two) of single and multi-component lures in tracking tunnels; settings: Phase One; for performance versus top performing lure CF (binomial test): P<0.03
Description: Lure preparation and presentation methods followed those outlined above.
For Phase One, A6, B6, C6, F7 and 17 identified as in Table 2 were presented. For example, A6 and B6 were blended together in equal parts to make a dyad lure coded AB. Each trial consisted of a single spatially stratified transect. Each strata contained one of each lure, a control (FCO) and the standard (peanut butter). The number of transect strata varied between trials according to site conditions i.e., track length and accessibility. Lures were spaced at 50 m, with the order of lures randomised within transect strata and between each trial. All lures were left in situ for two rain-free night. Ten trials were undertaken at independent sites across the Greater Wellington region and Richmond Range, Nelson, New Zealand between 11 Nov. 2015 and 25 Feb. 2016.
For Phase Two, the best performing single and dyad lures identified after Phase One were presented. In addition, all possible triad, tetrad and pentad blend combinations of A, B, C, F and I were created and trialled. […]
as §1, with “The elimination of poorer performing lures allowed for higher levels of internal replication and the inclusion of additional multi-component blend lures to Phase Two.” left out, “The tracking rate was used to direct the elimination process. Lures that were statistically less attractive than the best performing lure after Phase One trials were eliminated from subsequent trials.” left out, “Intensity was designed to identify lures that generated intensive or multiple visits by an individual or that elicited visits from multiple individuals.” left out

Row | SMILES | attractiveness relative to peanut butter standard and control (aggregated tracking rate) (wild, free-ranging rats [1]) | relative importance of variable (model averaging), Intensity (wild, free-ranging rats [2]) | relative importance of variable (model averaging), Contact (wild, free-ranging rats [3]) | relative importance of variable (model averaging), Marking (wild, free-ranging rats [3]) | relative importance of variable (model averaging), Visitation (wild, free-ranging rats [3]) | performance versus top performing lure CF (binomial test) (wild, free-ranging rats [4]) | tracking rate (wild, free-ranging rats [4]; 10 sites, n=30 per lure, two nights, summer months) | trend of attraction with concentration (wild, free-ranging rats [1]; seven concentrations 10,000 to 0.01 ppm)
1 | CC(C)CCO [A, isoamyl alcohol] | more attractive than the peanut butter standard | 0.85 | 0.68 | 0.95 | 0.69 |  |  | 
2 | CCCCCCO [B, 1-hexanol] | more attractive than the peanut butter standard | 0.89 | 0.50 | 0.95 | 0.90 | statistically weaker |  | 
3 | CC(=O)C(C)O (stereo not drawn) [C, acetoin] | more attractive than the peanut butter standard | 0.94 | 0.50 | 0.96 | 0.58 |  | 0.20 | 
4 | CC(C)CC(=O)O [D, Isopentanoic acid] | less attractive than the peanut butter standard and the control |  |  |  |  |  |  | 
5 | Cc1nccnc1C [E, 2,3-dimethylpyrazine] | less attractive than the peanut butter standard and the control |  |  |  |  |  |  | 
6 | CC(=O)OCC(C)C [F, isobutyl acetate] | more attractive than the peanut butter standard | 0.86 | 0.78 | 0.987 | 0.70 | statistically weaker |  | 
7 | CC(=O)OCCC(C)C [G, Isopentyl acetate] | less attractive than the peanut butter standard and the control |  |  |  |  |  |  | no trend
8 | Cc1nc(C)c(C)nc1C [H, Tetramethylpyrazine] | less attractive than the peanut butter standard but more attractive than the control |  |  |  |  |  |  | 
9 | CCC(C)COC(C)=O (stereo not drawn) [I, 2-methylbutyl acetate] | more attractive than the peanut butter standard | 0.88 | 0.48 | 0.95 | 0.84 |  |  | 
